Source: patent US10087148B2, “Quinazolines as biogenic amine transport modulators” (THE UNITED STATES OF AMERICA AS REPRESENTED BY THE …, priority 2014, dated 2018)
Entries after “also recorded” stand apart in the source; their conditions may differ.

Legend:
Type in all cases: biochemical
[1] = molecular target: norepinephrine transporter (NET) (Rattus norvegicus, UniProt Q63380); assay: [3H]norepinephrine (NE) uptake inhibition in rat brain synaptosomes; conditions: mean ± S.D.; n = 3
Method: Uptake inhibition assay for the norepinephrine transporter was conducted in rat brain synaptosomes as described elsewhere with minor modifications (Rothman et al., Synapse 39, 32-41 (2001)). Freshly removed whole brain minus cerebellum and caudate was homogenized in 10% ice-cold sucrose with 12 strokes of a hand-held Potter-Elvehjem homogenizer followed by centrifugation at 1000×g for 10 minutes. The supernatants were saved on ice and used immediately. Transporter activity at NET was assessed using 10 nM [^3H]norepinephrine. The assay buffer was Krebs-phosphate buffer containing 154.4 mM NaCl, 2.9 mM KCl, 1.1 mM CaCl2, 0.83 mM MgCl2, 5 mM glucose, 1 mg/mL ascorbic acid, and 50 μM pargyline. […] Uptake inhibition assays were conducted at 37° C. and were initiated by adding 100 μL of tissue to 900 μL assay buffer containing test drug and [^3H]norepinephrine. Test drugs were diluted in assay buffer containing 1 mg/mL bovine serum albumin. Nonspecific uptake was measured by incubating in the presence of 10 μM indatraline. The reactions were stopped after 10 minutes by rapid vacuum filtration with a cell harvester (BRANDEL) over GF/B filters (Whatman) presoaked in wash buffer maintained at 25° C. (10 mM Tris-HCl, pH 7.4/150 mM NaCl). Filters were rinsed with 6 mL wash buffer and retained tritium was quantified by a MicroBeta liquid scintillation counter (PerkinElmer) after overnight extraction in 0.6 mL of liquid scintillation cocktail (Cytoscint, ICN). The data from three experiments were pooled and fit to a dose-response curve equation (using Kaleidagraph), to yield an Emax and EC50 value.

[2] = molecular target: serotonin transporter (SERT) (Rattus norvegicus (Rat), UniProt P31652); assay: [3H]serotonin (5-HT) uptake inhibition in rat brain synaptosomes; conditions: mean ± S.D.; n = 3
Method: Uptake inhibition assay for the serotonin transporter was conducted in rat brain synaptosomes as described elsewhere with minor modifications (Rothman et al., Synapse 39, 32-41 (2001)). Freshly removed whole brain minus cerebellum and caudate was homogenized in 10% ice-cold sucrose with 12 strokes of a hand-held Potter-Elvehjem homogenizer followed by centrifugation at 1000×g for 10 min. The supernatants were saved on ice and used immediately. Transporter activity at SERT was assessed using 5 nM [^3H]serotonin. The assay buffer was Krebs-phosphate buffer containing 154.4 mM NaCl, 2.9 mM KCl, 1.1 mM CaCl2, 0.83 mM MgCl2, 5 mM glucose, 1 mg/mL ascorbic acid, and 50 μM pargyline. […] Uptake inhibition assays were conducted at 25° C. and were initiated by adding 100 μL of tissue to 900 μL assay buffer containing test drug and [^3H]serotonin. Test drugs were diluted in assay buffer containing 1 mg/mL bovine serum albumin. Nonspecific uptake was measured by incubating in the presence of 10 μM indatraline. The reactions were stopped after 30 min by rapid vacuum filtration with a cell harvester (BRANDEL) over GF/B filters (Whatman) presoaked in wash buffer maintained at 25° C. (10 mM Tris-HCl, pH 7.4/150 mM NaCl). Filters were rinsed with 6 mL wash buffer and retained tritium was quantified by a MicroBeta liquid scintillation counter (PerkinElmer) after overnight extraction in 0.6 mL of liquid scintillation cocktail (Cytoscint, ICN). The data from three experiments were pooled and fit to a dose-response curve equation (using Kaleidagraph), to yield an Emax and EC50 value.

[3] = molecular target: dopamine transporter (DAT) (Rattus norvegicus (Rat), UniProt P23977); assay: [3H]dopamine (DA) uptake inhibition in rat brain (caudate) synaptosomes; conditions: for DA Uptake Emax / EC50: rat caudate synaptosomes, 5 nM [3H]dopamine, mean ± SD; for One-Site Emax / Two-Site Emax-1 / Two-Site Emax-2: [3H]DA uptake; for One-Site Emax: one-component fit; for Two-Site Emax-1 / Two-Site Emax-2: two-component fit; for Two-Site Emax-1: component 1; for Two-Site Emax-2: component 2
Method: Uptake inhibition assay for the dopamine transporter was conducted in rat brain synaptosomes as described elsewhere with minor modifications (Rothman et al., Synapse 39, 32-41 (2001)). Freshly removed caudate was homogenized in 10% ice-cold sucrose with 12 strokes of a hand-held Potter-Elvehjem homogenizer followed by centrifugation at 1000×g for 10 min. The supernatants were saved on ice and used immediately. Transporter activity was assessed using 5 nM [^3H]dopamine. The assay buffer was Krebs-phosphate buffer containing 154.4 mM NaCl, 2.9 mM KCl, 1.1 mM CaCl2, 0.83 mM MgCl2, 5 mM glucose, 1 mg/mL ascorbic acid, and 50 μM pargyline. The selectivity of the uptake assay for DAT was optimized by including 100 nM citalopram and 100 nM desipramine as blockers of SERT and NET in the sucrose solution and assay buffer. Uptake inhibition assays were conducted at 25° C. and were initiated by adding 100 μl of tissue to 900 μL assay buffer containing test drug and [^3H]dopamine. Test drugs were diluted in assay buffer containing 1 mg/mL bovine serum albumin. Nonspecific uptake was measured by incubating in the presence of 10 μM indatraline. The reactions were stopped after 15 minutes by rapid vacuum filtration with a cell harvester (BRANDEL) over GF/B filters (Whatman) presoaked in wash buffer maintained at 25° C. (10 mM Tris-HCl, pH 7.4/150 mM NaCl). Filters were rinsed with 6 mL wash buffer and retained tritium was quantified by a MicroBeta liquid scintillation counter (PerkinElmer) after overnight extraction in 0.6 mL of liquid scintillation cocktail (Cytoscint, ICN). The data from three experiments were pooled and fit to a dose-response curve equation (using Kaleidagraph), to yield an Emax and EC50 value.
All of the test compounds were synthesized as described herein. Next, 8-point dose-response curves were generated for each compound (1-20,000 nM) in the [^3H]DA uptake assay. The data from three experiments were pooled and fit to a dose-response curve equation (using KaleidaGraph; Synergy Software, Reading, Pa.) to yield an Emax and IC50 value. […] Selected compounds were also tested for their ability to inhibit [^3H]WIN35428 binding to rat caudate DAT.

Chain of dopamine transporter (DAT) (P23977 whole entry): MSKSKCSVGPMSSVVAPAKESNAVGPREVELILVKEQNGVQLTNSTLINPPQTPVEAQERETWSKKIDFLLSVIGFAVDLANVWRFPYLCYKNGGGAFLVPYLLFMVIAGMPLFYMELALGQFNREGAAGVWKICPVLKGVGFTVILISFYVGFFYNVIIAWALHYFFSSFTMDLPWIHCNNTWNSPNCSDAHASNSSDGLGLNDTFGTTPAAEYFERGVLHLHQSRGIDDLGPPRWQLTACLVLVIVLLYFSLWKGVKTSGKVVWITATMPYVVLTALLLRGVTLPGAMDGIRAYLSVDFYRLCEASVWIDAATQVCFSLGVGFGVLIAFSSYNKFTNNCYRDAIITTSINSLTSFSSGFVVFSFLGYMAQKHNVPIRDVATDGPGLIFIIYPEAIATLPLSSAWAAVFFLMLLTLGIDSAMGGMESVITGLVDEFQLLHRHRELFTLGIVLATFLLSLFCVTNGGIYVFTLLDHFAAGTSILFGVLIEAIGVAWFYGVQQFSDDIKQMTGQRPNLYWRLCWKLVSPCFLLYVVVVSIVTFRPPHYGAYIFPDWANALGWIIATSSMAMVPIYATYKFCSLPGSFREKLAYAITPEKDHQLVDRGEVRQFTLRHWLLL
Chain of serotonin transporter (SERT) (P31652 whole entry): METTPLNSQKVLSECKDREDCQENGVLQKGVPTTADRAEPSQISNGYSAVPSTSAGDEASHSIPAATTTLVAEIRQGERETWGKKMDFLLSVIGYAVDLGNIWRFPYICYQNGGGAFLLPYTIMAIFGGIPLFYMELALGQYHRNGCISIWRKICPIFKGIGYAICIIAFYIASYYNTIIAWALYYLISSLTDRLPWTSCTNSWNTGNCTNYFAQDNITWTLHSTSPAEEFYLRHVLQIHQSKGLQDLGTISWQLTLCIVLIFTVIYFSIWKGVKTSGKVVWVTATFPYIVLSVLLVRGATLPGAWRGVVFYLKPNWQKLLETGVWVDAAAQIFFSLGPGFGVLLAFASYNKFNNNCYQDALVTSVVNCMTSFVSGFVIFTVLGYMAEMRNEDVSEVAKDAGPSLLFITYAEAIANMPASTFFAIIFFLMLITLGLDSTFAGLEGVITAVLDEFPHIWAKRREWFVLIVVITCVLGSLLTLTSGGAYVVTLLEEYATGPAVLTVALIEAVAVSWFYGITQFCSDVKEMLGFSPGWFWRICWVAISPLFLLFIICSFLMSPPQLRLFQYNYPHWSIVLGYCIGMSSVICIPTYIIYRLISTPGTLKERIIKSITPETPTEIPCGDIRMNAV
Chain of norepinephrine transporter (NET) (Q63380 1-617): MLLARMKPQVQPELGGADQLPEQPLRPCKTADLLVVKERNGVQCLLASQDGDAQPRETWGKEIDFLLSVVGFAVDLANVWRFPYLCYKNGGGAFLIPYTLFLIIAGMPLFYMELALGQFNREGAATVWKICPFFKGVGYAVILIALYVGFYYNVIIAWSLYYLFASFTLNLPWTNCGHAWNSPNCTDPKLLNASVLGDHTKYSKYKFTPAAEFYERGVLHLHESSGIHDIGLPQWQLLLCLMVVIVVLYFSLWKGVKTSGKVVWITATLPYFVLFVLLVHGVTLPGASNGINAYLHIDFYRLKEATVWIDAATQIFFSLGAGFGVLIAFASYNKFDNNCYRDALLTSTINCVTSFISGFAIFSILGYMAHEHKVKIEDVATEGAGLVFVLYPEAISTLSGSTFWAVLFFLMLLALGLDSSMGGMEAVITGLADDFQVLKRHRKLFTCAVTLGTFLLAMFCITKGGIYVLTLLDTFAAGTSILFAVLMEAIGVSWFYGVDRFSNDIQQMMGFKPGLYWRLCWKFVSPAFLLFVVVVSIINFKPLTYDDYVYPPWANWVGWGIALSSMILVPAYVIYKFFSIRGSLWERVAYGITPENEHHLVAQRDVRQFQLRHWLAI

Row | Structure (SMILES) | DA Uptake Emax [3] [% I] | EC50 [3] [nM] | further results
1 | COC(=O)[C@H]1[C@@H](OC(=O)c2ccccc2)C[C@@H]2CC[C@H]1N2C [Cocaine, reference compound] | – | – | NET Uptake Emax [1]: 102 ± 2%; SERT Uptake Emax [2]: 98 ± 2%
2 | CS(=O)(=O)Nc1ccc(-c2nc(NCC(c3ccccn3)c3ccc[nH]3)c3ccccc3n2)cc1 (stereo not shown) [Compound 32, N-(4-(4-((2-(pyridin-2-yl)-2-(1H-pyrrol-2-yl)ethyl)amino)quinazolin-2-yl)phenyl)methanesulfonamide] | 73 ± 3 | 379 ± 80 | –
3 | CN(C)c1ccc(-c2nc(NCC(c3ccccn3)c3ccc[nH]3)c3ccccc3n2)cc1 (stereo not shown) [Compound 33, 2-(4-(dimethylamino)phenyl)-N-(2-(pyridin-2-yl)-2-(1H-pyrrol-2-yl)ethyl)quinazolin-4-amine] | 89 ± 4 | 65 ± 18 | –
4 | CN(C)c1ccc(-c2nc(NCC(c3ccncc3)c3ccncc3)c3ccccc3n2)cc1 [Compound 34, N-(2,2-di(pyridin-4-yl)ethyl)-2-(4-(dimethylamino)phenyl)quinazolin-4-amine] | 78 ± 3 | 21 ± 5 | –
5 | CS(=O)(=O)Nc1ccc(-c2nc(NCC(c3ccncc3)c3ccncc3)c3ccccc3n2)cc1 [Compound 35, N-(4-(4-((2,2-di(pyridin-4-yl)ethyl)amino)quinazolin-2-yl)phenyl)methanesulfonamide] | 70 ± 2 | 47 ± 10 | –
6 | CN(C)c1ccc(-c2nc(NCCc3ccccc3)c3ccccc3n2)cc1 [Compound 36, 2-(4-(dimethylamino)phenyl)-N-phenethylquinazolin-4-amine] | 100 ± 1 | 156 ± 12 | Efficacy of [3H]DA (DAT) uptake inhibition, in words [3]: fully inhibits; also recorded: full-efficacy; One-Site Emax [3]: 100 ± 1.5 % I; Two-Site Emax-1 [3]: 76 ± 54 % I; Two-Site Emax-2 [3]: 27 ± 53 % I
7 | CS(=O)(=O)Nc1ccc(-c2nc(NCCc3ccccc3)c3ccccc3n2)cc1 [Compound 37, N-(4-(4-(phenethylamino)quinazolin-2-yl)phenyl)methanesulfonamide] | 86 ± 6 | 159 ± 54 | –
8 | CN(C)c1ccc(-c2nc(NCC(C)(c3ccccc3)c3ccccc3)c3ccccc3n2)cc1 [Compound 38, 2-(4-(dimethylamino)phenyl)-N-(2,2-diphenylpropyl)quinazolin-4-amine] | 68 ± 3 | 15 ± 4 | –
9 | CC(CNc1nc(-c2ccc(NS(C)(=O)=O)cc2)nc2ccccc12)(c1ccccc1)c1ccccc1 [Compound 39, N-(4-(4-((2,2-diphenylpropyl)amino)quinazolin-2-yl)phenyl)methanesulfonamide] | 67 ± 2 | 16 ± 3 | –
10 | CN(C)c1ccc(-c2nc(NC(Cc3ccccc3)c3ccccc3)c3ccccc3n2)cc1 (stereo not shown) [Compound 40, 2-(4-(dimethylamino)phenyl)-N-(1,2-diphenylethyl)quinazolin-4-amine] | 72 ± 2 | 40 ± 8 | –
11 | CS(=O)(=O)Nc1ccc(-c2nc(NC(Cc3ccccc3)c3ccccc3)c3ccccc3n2)cc1 (stereo not shown) [Compound 41, N-(4-(4-((1,2-diphenylethyl)amino)quinazolin-2-yl)phenyl)methanesulfonamide] | 69 ± 3 | 50 ± 14 | –
12 | CS(=O)(=O)Nc1ccc(-c2nc(NC(CCc3ccccc3)c3ccccc3)c3ccccc3n2)cc1 (stereo not shown) [Compound 42, N-(4-(4-((1,3-diphenylpropyl)amino)quinazolin-2-yl)phenyl)methanesulfonamide] | 72 ± 2 | 71 ± 11 | –
13 | CN(C)c1ccc(-c2nc(NC(CCc3ccccc3)c3ccccc3)c3ccccc3n2)cc1 (stereo not shown) [Compound 43, 2-(4-(dimethylamino)phenyl)-N-(1,3-diphenylpropyl)quinazolin-4-amine] | 70 ± 4 | 75 ± 22 | –
14 | CC(C)C(CNc1nc(-c2ccc(N(C)C)cc2)nc2ccccc12)c1ccccc1 (stereo not shown) [Compound 44, 2-(4-(dimethylamino)phenyl)-N-(3-methyl-2-phenylbutyl)quinazolin-4-amine] | 84 ± 5 | 30 ± 10 | –
15 | CC(C)C(CNc1nc(-c2ccc(NS(C)(=O)=O)cc2)nc2ccccc12)c1ccccc1 (stereo not shown) [Compound 45, N-(4-(4-((3-methyl-2-phenylbutyl)amino)quinazolin-2-yl)phenyl)methanesulfonamide] | 78 ± 4 | 20 ± 6 | –
16 | CCN(CC)C(=O)[C@]1(c2ccccc2)C[C@@H]1CNc1nc(-c2ccc(N(C)C)cc2)nc2ccccc12 [Compound 46, (1R,2S)-2-(((2-(4-(dimethylamino)phenyl)quinazolin-4-yl)amino)methyl)-N,N-diethyl-1-phenylcyclopropanecarboxamide] | 93 ± 1 | 243 ± 18 | –
17 | Cc1cc(NS(C)(=O)=O)ccc1-c1nc(NCC(c2ccncc2)c2ccncc2)c2ccccc2n1 [Compound 47, N-(4-(4-((2,2-di(pyridin-4-yl)ethyl)amino)quinazolin-2-yl)-3-methylphenyl)methanesulfonamide] | 67 ± 4 | 84 ± 25 | –
18 | CN(C)c1ccc(-c2nc(NCC(Oc3ccccc3)c3ccccc3)c3ccccc3n2)cc1 (stereo not shown) [Compound 48, 2-(4-(dimethylamino)phenyl)-N-(2-phenoxy-2-phenylethyl)quinazolin-4-amine] | 72 ± 3 | 42 ± 10 | –
19 | CS(=O)(=O)Nc1ccc(-c2nc(NCC(Oc3ccccc3)c3ccccc3)c3ccccc3n2)cc1 (stereo not shown) [Compound 49, N-(4-(4-((2-phenoxy-2-phenylethyl)amino)quinazolin-2-yl)phenyl)methanesulfonamide] | 67 ± 2 | 30 ± 5 | –
20 | c1ccc(C(CNc2nc(-c3ccc4c(c3)CCN4)nc3ccccc23)c2ccccc2)cc1 [SRI-29986] | – | – | Efficacy of [3H]DA (DAT) uptake inhibition, in words [3]: partial inhibitors; One-Site Emax [3]: 75 ± 3 % I; Two-Site Emax-1 [3]: 37 × 10^8 ± 2.7 × 10^8 % I; Two-Site Emax-2 [3]: 37 × 10^8 ± 0.7 × 10^8 % I
